Tests used:
[1] = biological target: Carbonic anhydrase 9 (Homo sapiens, UniProt Q16790)
Description: Inhibitory activity against human carbonic anhydrase IX

[2] = biological target: Carbonic anhydrase 2 (Homo sapiens, UniProt P00918)
Description: Inhibitory activity against human carbonic anhydrase II

[3] = biological target: Carbonic anhydrase 1 (Homo sapiens, UniProt P00915)
Sequence of Carbonic anhydrase 1 (P00915 whole entry): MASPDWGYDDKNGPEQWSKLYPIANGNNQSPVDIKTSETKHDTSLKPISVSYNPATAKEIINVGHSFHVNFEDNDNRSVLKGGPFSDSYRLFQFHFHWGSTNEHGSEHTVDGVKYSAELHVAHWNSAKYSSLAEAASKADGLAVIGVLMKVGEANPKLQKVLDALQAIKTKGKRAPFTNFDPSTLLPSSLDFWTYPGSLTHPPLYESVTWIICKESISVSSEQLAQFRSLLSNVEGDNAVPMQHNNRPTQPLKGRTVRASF
Description: Inhibitory activity against human carbonic anhydrase I

Question: How did the Ki [1] turn out when `NS(=O)(=O)c1ccc(CNS(=O)(=O)c2c(F)c(F)cc(F)c2F)cc1` was run?
Answer: Its Ki is 8.5 nM.

Question: What about the Ki [2] of the same molecule?
Answer: The Ki was 12 nM.

Question: And the Ki [3]?
Answer: The Ki was 860 nM.

Question: How did the Ki [1] turn out when `NS(=O)(=O)c1ccc(NC(=O)c2c(F)c(F)cc(F)c2F)c(Br)c1` was run?
Answer: Its Ki is 4.8 nM.

Question: What about the Ki [2] of the same molecule?
Answer: Its Ki is 84 nM.

Question: What about the Ki [3] of the same molecule?
Answer: Its Ki is 1870 nM.

Question: How did the Ki [1] turn out when `NS(=O)(=O)c1ccc(NC(=O)c2c(F)c(F)cc(F)c2F)c(F)c1` was run?
Answer: Its Ki is 24 nM.

Question: What about the Ki [2] of the same molecule?
Answer: Its Ki is 1.5 nM.

Question: And the Ki [3]?
Answer: Its Ki is 760 nM.

Question: Which results are given for `NS(=O)(=O)c1ccc(CCNS(=O)(=O)c2c(F)c(F)cc(F)c2F)cc1`?
Answer: Ki [1]: 7 nM; Ki [2]: 9 nM; Ki [3]: 750 nM

Question: For `NS(=O)(=O)c1ccc(NS(=O)(=O)c2ccc(NC(=O)c3c(F)c(F)cc(F)c3F)cc2)cc1`, which Ki [1] is on record?
Answer: Its Ki is 3.2 nM.

Question: And the Ki [2]?
Answer: Its Ki is 19 nM.

Question: What about the Ki [3] of the same molecule?
Answer: Its Ki is 6300 nM.

Question: Which Ki [1] does the source give for `NS(=O)(=O)c1nnc(NS(=O)(=O)c2c(F)c(F)cc(F)c2F)s1` here?
Answer: The Ki was 4.3 nM.

Question: What about the Ki [2] of the same molecule?
Answer: The Ki was 0.7 nM.

Question: And the Ki [3]?
Answer: The Ki was 13 nM.

Question: Which Ki [1] does the source give for `NS(=O)(=O)c1ccc(CCNC(=O)c2c(F)c(F)cc(F)c2F)cc1` here?
Answer: The Ki was 7.3 nM.

Question: And the Ki [2]?
Answer: The Ki was 12 nM.

Question: What about the Ki [3] of the same molecule?
Answer: The Ki was 900 nM.

Question: Which results are given for `NS(=O)(=O)c1ccc(NC(=O)c2c(F)c(F)cc(F)c2F)cc1`?
Answer: Ki [1]: 15.2 nM; Ki [2]: 16 nM; Ki [3]: 975 nM

Question: Which results are given for `NS(=O)(=O)c1ccc(CCNS(=O)(=O)c2ccc(NC(=O)c3c(F)c(F)cc(F)c3F)cc2)cc1`?
Answer: Ki [1]: 7.6 nM; Ki [2]: 13 nM; Ki [3]: 6000 nM

Question: Which Ki [1] does the source give for `NS(=O)(=O)c1ccc(NC(=O)c2c(F)c(F)cc(F)c2F)c(Cl)c1` here?
Answer: Its Ki is 16 nM.

Question: What about the Ki [2] of the same molecule?
Answer: The Ki was 76 nM.

Question: What about the Ki [3] of the same molecule?
Answer: Its Ki is 1080 nM.

Question: `NS(=O)(=O)c1cccc(NC(=O)c2c(F)c(F)cc(F)c2F)c1` was tested. Which Ki [1] did it give?
Answer: Its Ki is 0.8 nM.

Question: What about the Ki [2] of the same molecule?
Answer: Its Ki is 21 nM.

Question: And the Ki [3]?
Answer: The Ki was 1700 nM.

Question: With `Cn1nc(S(N)(=O)=O)s/c1=N\C(=O)c1c(F)c(F)cc(F)c1F` as the molecule, how does the Ki [1] read?
Answer: The Ki was 10.5 nM.

Question: And the Ki [2]?
Answer: Its Ki is 1.4 nM.

Question: And the Ki [3]?
Answer: The Ki was 270 nM.

Question: How did the Ki [1] turn out when `NS(=O)(=O)c1ccccc1NC(=O)c1c(F)c(F)cc(F)c1F` was run?
Answer: The Ki was 9.5 nM.

Question: What about the Ki [2] of the same molecule?
Answer: The Ki was 38 nM.

Question: What about the Ki [3] of the same molecule?
Answer: The Ki was 1500 nM.

Question: What does the source list for `NS(=O)(=O)c1ccc(CNS(=O)(=O)c2ccc(NC(=O)c3c(F)c(F)cc(F)c3F)cc2)cc1`?
Answer: Ki [2]: 15 nM; Ki [3]: 6100 nM

Question: What does the source list for `NS(=O)(=O)c1nnc(NC(=O)c2c(F)c(F)cc(F)c2F)s1`?
Answer: Ki [1]: 12.6 nM; Ki [2]: 2.1 nM; Ki [3]: 250 nM

Question: Which Ki [1] does the source give for `NS(=O)(=O)c1ccc(CNC(=O)c2c(F)c(F)cc(F)c2F)cc1` here?
Answer: The Ki was 9.5 nM.

Question: And the Ki [2]?
Answer: Its Ki is 13 nM.

Question: What about the Ki [3] of the same molecule?
Answer: Its Ki is 980 nM.

Reference: ChEMBL document CHEMBL1137954, “Carbonic anhydrase inhibitors: inhibition of the tumor-associated isozyme IX with fluorine-containing sulfonamides. The first subnanomolar CA IX inhibitor discovered” (Bioorg Med Chem Lett, 2004)
